Assay [1] addresses T1, FLT3 (Homo sapiens, UniProt P36888).
T1 construct: purchased Reaction Biology Corporation
T1 sequence (P36888 27-993): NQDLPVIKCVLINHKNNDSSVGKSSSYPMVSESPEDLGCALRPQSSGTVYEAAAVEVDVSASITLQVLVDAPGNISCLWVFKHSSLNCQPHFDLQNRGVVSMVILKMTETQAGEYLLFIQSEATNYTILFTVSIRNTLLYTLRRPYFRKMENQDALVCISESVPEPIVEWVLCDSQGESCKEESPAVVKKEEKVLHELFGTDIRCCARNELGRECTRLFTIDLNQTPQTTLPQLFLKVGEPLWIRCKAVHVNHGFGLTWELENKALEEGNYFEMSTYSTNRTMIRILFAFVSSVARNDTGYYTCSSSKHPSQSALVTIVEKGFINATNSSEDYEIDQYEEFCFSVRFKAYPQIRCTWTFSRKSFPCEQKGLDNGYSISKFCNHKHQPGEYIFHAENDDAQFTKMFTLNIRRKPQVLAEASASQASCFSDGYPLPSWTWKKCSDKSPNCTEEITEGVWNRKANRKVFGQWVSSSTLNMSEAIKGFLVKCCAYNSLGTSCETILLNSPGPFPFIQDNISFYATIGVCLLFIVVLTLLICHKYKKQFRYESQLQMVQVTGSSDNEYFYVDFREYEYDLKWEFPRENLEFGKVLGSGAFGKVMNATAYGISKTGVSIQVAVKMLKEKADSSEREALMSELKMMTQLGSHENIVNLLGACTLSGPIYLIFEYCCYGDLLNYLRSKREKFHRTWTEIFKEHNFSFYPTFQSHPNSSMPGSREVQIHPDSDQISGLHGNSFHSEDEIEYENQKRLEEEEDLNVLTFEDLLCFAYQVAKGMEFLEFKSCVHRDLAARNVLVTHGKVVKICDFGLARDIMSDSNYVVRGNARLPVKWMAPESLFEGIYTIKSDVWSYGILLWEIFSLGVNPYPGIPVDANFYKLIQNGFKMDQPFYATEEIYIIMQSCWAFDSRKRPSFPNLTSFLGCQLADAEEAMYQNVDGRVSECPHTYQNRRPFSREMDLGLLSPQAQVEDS
Description: HotSpot kinase assay, FLT3. Format: biochemical. The following applies: HotSpot radiometric 33P ATP assay, 25° C., 120 min. How it is done: (§1) In vitro profiling of the MELK, MELK (T460M) kinase panel was performed at Reaction Biology Corporation using the “HotSpot” assay platform. In vitro profiling of the FLT3, FLT3 mutant forms; FLT3 (D835Y), FLT3 (F594R595insR), FLT3 (F594R595insREY), FLT3 (ITD), FLT3 (ITD)-NPOS, FLT3 (ITD)-W51 and FLT3 (R595_E596insEY) kinase panel is performed in the same manner.
(§2) Briefly, specific kinase/substrate pairs along with required cofactors were prepared in reaction buffer; 20 mM Hepes (pH 7.5), 10 mM MgCl2, 1 mM EGTA, 0.02% Brij35, 0.02 mg/mL BSA, 0.1 mM Na3VO4, 2 mM DTT, 1% DMSO. Compounds were delivered into the reaction, followed ˜20 min later by addition of a mixture of ATP (Sigma) and ^33P ATP (PerkinElmer) to a final concentration of […]. Reactions were carried out at 25° C. for 120 min, followed by spotting of the reactions onto P81 ion exchange filter paper (Whatman). Unbound phosphate was removed by extensive washing of filters in 0.75% phosphoric acid. […] IC50 values and curve fits were obtained using Prism (GraphPad Software).

Assay [2] deals with T2, MELK (Homo sapiens, UniProt Q14680).
T2 construct: purchased Reaction Biology Corporation
Put plainly: HotSpot kinase assay, MELK. In kind it is biochemical. The following applies: HotSpot radiometric 33P ATP assay, 25° C., 120 min. How it is done: as §1, §2

Structures can show the parent of a compound that is named as a salt.

As usually defined, the IC50 is the concentration needed to halve the response being measured. A low value points to greater potency in that assay.

T2 sequence (Q14680 whole entry): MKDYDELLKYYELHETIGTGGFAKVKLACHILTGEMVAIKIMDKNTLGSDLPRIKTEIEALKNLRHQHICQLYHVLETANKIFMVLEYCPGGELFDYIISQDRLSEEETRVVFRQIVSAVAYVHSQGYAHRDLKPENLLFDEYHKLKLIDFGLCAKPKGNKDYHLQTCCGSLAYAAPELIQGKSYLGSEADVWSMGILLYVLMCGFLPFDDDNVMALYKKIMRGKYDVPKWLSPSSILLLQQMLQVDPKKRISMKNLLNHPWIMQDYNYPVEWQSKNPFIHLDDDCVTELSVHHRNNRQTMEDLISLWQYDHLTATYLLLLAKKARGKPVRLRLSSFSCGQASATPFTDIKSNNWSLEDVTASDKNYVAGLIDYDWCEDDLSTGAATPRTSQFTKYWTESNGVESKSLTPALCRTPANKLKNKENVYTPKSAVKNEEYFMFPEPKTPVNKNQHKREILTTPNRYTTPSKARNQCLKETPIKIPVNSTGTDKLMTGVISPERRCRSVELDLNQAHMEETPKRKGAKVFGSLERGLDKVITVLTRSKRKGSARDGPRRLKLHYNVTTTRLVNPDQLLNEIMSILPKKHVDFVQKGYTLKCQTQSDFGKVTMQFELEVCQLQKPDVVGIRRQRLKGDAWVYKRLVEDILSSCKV

In the case of `N[C@H]1CC[C@@H](COc2cncnc2-c2cnn(-c3c(F)cccc3F)c2)CC1` [Compound I-1, (1s,4s)-4-(((4-(1-(2,6-difluorophenyl)-1H-pyrazol-4-yl)pyrimidin-5-yl)oxy)methyl)cyclo-hexan-1-amine], the IC50 in assay [1] and in assay [2] was less than 200 nM each time.
`N[C@H]1CC[C@@H](COc2cncnc2-c2cnn(-c3ccccc3C(F)(F)F)c2)CC1` [Compound I-2, (1s,4s)-4-(((4-(1-(2-(trifluoromethyl)phen-yl)-1H-pyrazol-4-yl)pyrimidin-5-yl)oxy)methyl)cyclo-hexan-1-amine]: the results for the concentration for half-maximal inhibition (IC50) in assay [1] and in assay [2] were 200 to 1000 nM and greater than 1000 nM, respectively.
For `N[C@H]1CC[C@@H](COc2cncnc2-c2cnn(-c3ccccc3OC(F)(F)F)c2)CC1` [Compound I-3, (1s,4s)-4-(((4-(1-(2-(trifluoromethoxy)phen-yl)-1H-pyrazol-4-yl)pyrimidin-5-yl)oxy)methyl)cyclo-hexan-1-amine], in that order: 200 to 1000 nM and 200 to 1000 nM.
For `N#Cc1ccccc1-n1cc(-c2ncncc2OC[C@H]2CC[C@@H](N)CC2)cn1` [Compound I-4, 2-(4-(5-(((1s,4s)-4-aminocyclohexyl)meth-oxy)pyrimidin-4-yl)-1H-pyrazol-1-yl)benzonitrile], in that order: less than 200 nM and 200 to 1000 nM.
For `COc1ccccc1-n1cc(-c2ncncc2OC[C@H]2CC[C@@H](N)CC2)cn1` [Compound I-5, (1s,4s)-4-(((4-(1-(2-methoxyphenyl)-1H-pyrazol-4-yl)pyrimidin-5-yl)oxy)methyl)cyclo-hexan-1-amine], in that order: less than 200 nM and less than 200 nM.
As to `N[C@@H]1CC[C@H](COc2cncnc2-c2cnn(-c3ccccc3F)c2)C1` [Compound I-6, (1R,3S)-3-(((4-(1-(2-fluorophenyl)-1H-pyrazol-4-yl)pyrimidin-5-yl)oxy)methyl)cyclo-pentan-1-amine], the IC50 in assay [1] and in assay [2] was 200 to 1000 nM each time.
On to `CN(C)[C@@H]1CC[C@H](COc2cncnc2-c2cnn(-c3ccccc3F)c2)C1` [Compound I-7, (1R,3S)-3-(((4-(1-(2-fluorophenyl)-1H-pyrazol-4-yl)pyrimidin-5-yl)oxy)methyl)-N,N-dimethylcyclopentan-1-amine], for which the IC50 in assay [1] and in assay [2] was 200 to 1000 nM in each case.
For the molecule `CN(C)C[C@@H]1CC[C@H](COc2cncnc2-c2cnn(-c3ccccc3F)c2)C1` [Compound I-8, 1-((1R,3S)-3-(((4-(1-(2-fluorophenyl)-1H-pyrazol-4-yl)pyrimidin-5-yl)oxy)methyl)cyclo-pentyl)-N,N-dimethylmethanamine], the 50% inhibitory concentration (IC50) in assay [1] and in assay [2] was less than 200 nM each time.
`CN(C)[C@H]1CC[C@@H](COc2cncnc2-c2cnn(-c3ccccc3F)c2)CC1` [Compound I-9, (1s,4s)-4-(((4-(1-(2-fluorophenyl)-1H-pyrazol-4-yl)pyrimidin-5-yl)oxy)methyl)-N,N-dimethylcyclohexan-1-amine]: the figures for the IC50 in assay [1] and in assay [2] were less than 200 nM and 200 to 1000 nM, respectively.
For `NC1CCN(c2cncnc2-c2cnn(-c3ccccc3F)c2)CC1` [Compound I-10, 1-(4-(1-(2-fluorophenyl)-1H-pyrazol-4-yl)pyrimidin-5-yl)piperidin-4-amine], in that order: 200 to 1000 nM and greater than 1000 nM.
For `N[C@H]1CC[C@@H](CNc2cncnc2-c2cnn(-c3ccccc3F)c2)CC1` [Compound I-11, N-(((1s,4s)-4-aminocyclohexyl)meth-yl)-4-(1-(2-fluorophenyl)-1H-pyrazol-4-yl)pyrimidin-5-amine], in that order: 200 to 1000 nM and greater than 1000 nM.
For `N[C@H]1CC[C@@H](CNc2cncnc2-c2cnn(-c3c(F)cccc3F)c2)CC1` [Compound I-12, N-(((1s, 4s)-4-aminocyclohexyl)methyl)-4-(1-(2,6-difluorophenyl)-1H-pyrazol-4-yl)-pyrimidin-5-amine trifluoroacetate], in that order: 200 to 1000 nM and greater than 1000 nM.
Consider `N[C@@H]1CC[C@@H]1COc1cncnc1-c1cnn(-c2ccccc2F)c1` [Compound I-13, (1R,2S)-2-(((4-(1-(2-fluorophenyl)-1H-pyrazol-4-yl)pyrimidin-5-yl)oxy)methyl)cyclo-butan-1-amine], for which the IC50 in assay [1] and in assay [2] was greater than 1000 nM each time.
In the case of `Cc1cccc(F)c1-n1cc(-c2ncncc2OC[C@H]2CC[C@@H](N)CC2)cn1` [Compound I-14, (1s,4s)-4-(((4-(1-(2-fluoro-6-methylphenyl)-1H-pyrazol-4-yl)pyrimidin-5-yl)oxy)methyl)cyclo-hexan-1-amine], the IC50 is 200 to 1000 nM in assay [1] and greater than 1000 nM in assay [2].
For `CC(C)N[C@H]1CC[C@@H](COc2cncnc2-c2cnn(-c3ccccc3F)c2)CC1` [Compound I-15, (1s,4s)-4-(((4-(1-(2-fluorophenyl)-1H-pyrazol-4-yl)pyrimidin-5-yl)oxy)methyl)-N-isopropylcyclohexan-1-amine] the same measures were less than 200 nM and 200 to 1000 nM.
Take `CC(C)N1CCC(COc2cncnc2-c2cnn(-c3ccccc3F)c2)CC1` [Compound I-16, 4-(1-(2-fluorophenyl)-1H-pyrazol-4-yl)-5-((1-isopropylpiperidin-4-yl)methoxy)pyrim-idine]: the IC50 in assay [1] and in assay [2] was greater than 1000 nM each time.
For the molecule `CC(Oc1cncnc1-c1cnn(-c2ccccc2F)c1)[C@H]1CC[C@@H](N)CC1` (stereo partly drawn) [Compound I-17, (1S,4s)-4-((R)-1-((4-(1-(2-fluorophenyl)-1H-pyrazol-4-yl)pyrimidin-5-yl)oxy)ethyl)cyclo-hexan-1-amine], the IC50 in assay [1] and in assay [2] was 200 to 1000 nM throughout.
Turning to `Cc1cccc(F)c1-n1cc(-c2ncncc2OC[C@H]2CCC[C@@H](N)C2)cn1` [Compound I-18, (1R,3S)-3-(((4-(1-(2-fluoro-6-methylphenyl)-1H-pyrazol-4-yl)pyrimidin-5-yl)oxy)methyl)cyclo-hexan-1-amine], the IC50 in assay [1] was 200 to 1000 nM; in assay [2], greater than 1000 nM.
For `N[C@H]1CC[C@@H](CCOc2cncnc2-c2cnn(-c3ccccc3F)c2)CC1` [Compound I-19, (1s,4s)-4-(2-((4-(1-(2-fluorophenyl)-1H-pyrazol-4-yl)pyrimidin-5-yl)oxy)ethyl)cyclo-hexan-1-amine], in that order: less than 200 nM and less than 200 nM.
Regarding `N[C@H]1CC[C@@H](COc2cncnc2-c2cnn(-c3cc(F)cc(F)c3)c2)CC1` [Compound I-20, (1s,4s)-4-(((4-(1-(3,5-difluorophenyl)-1H-pyrazol-4-yl)pyrimidin-5-yl)oxy)methyl)cyclo-hexan-1-amine], the IC50 was 200 to 1000 nM in assay [1] and greater than 1000 nM in assay [2].
As for `N[C@H]1CC[C@@H](COc2cncnc2-c2cnn(-c3ccc(O)c(F)c3)c2)CC1` [Compound I-21, 4-(4-(5-(((1s,4s)-4-aminocyclohexyl)meth-oxy)pyrimidin-4-yl)-1H-pyrazol-1-yl)-2-fluorophenol], the IC50 in assay [1] and in assay [2] was less than 200 nM each time.
Consider `COc1ccc(-n2cc(-c3ncncc3OC[C@H]3CC[C@@H](N)CC3)cn2)cc1F` [Compound I-22, (1s,4s)-4-(((4-(1-(3-fluoro-4-methoxyphenyl)-1H-pyrazol-4-yl)pyrimidin-5-yl)oxy)methyl)cyclo-hexan-1-amine], for which the concentration for half-maximal inhibition (IC50) in assay [1] and in assay [2] was less than 200 nM throughout.
On to `Fc1ccccc1-n1cc(-c2ncncc2OCC2CCNCC2)cn1` [Compound I-23, 4-(1-(2-fluorophenyl)-1H-pyrazol-4-yl)-5-(piperidin-4-ylmethoxy)pyrim-idine], for which the IC50 in assay [1] and in assay [2] was less than 200 nM in each case.
As for `Fc1ccccc1-n1cc(-c2ncncc2NCC2CCNCC2)cn1` [Compound I-24, 4-(1-(2-fluorophenyl)-1H-pyrazol-4-yl)-N-(piperidin-4-ylmethyl)pyrimidin-5-amine], the IC50 in assay [1] and in assay [2] was greater than 1000 nM throughout.

Source of the values: patent US11053221B2, “Substituted pyrimidines for inhibiting embryonic leucine zipper kinase activity” (Arrien Pharmaceuticals LLC, priority 2018, dated 2021).
